From patent publication US6043217A, “Amide derivative of amythiamicin” (Zaidan Hojin Biseibutsu Kagaku Kenyu Kai, priority 1996, dated 2000)

Key:
Assay type in all cases: cell-based
Escherichia coli BE 1186 = assay: MIC, standard serial dilution method; details: Muller-Hinton agar medium, 37° C.
[1] = tested on: Staphylococcus aureus FDA 209P; assay: MIC, standard serial dilution method; details: Muller-Hinton agar medium, 37° C.
[2] = tested on: Staphylococcus aureus MS 9610; assay: MIC, standard serial dilution method; details: Muller-Hinton agar medium, 37° C.
Bacillus anthracis = details: Muller-Hinton agar medium, 37° C.
Candida albicans 3147 = assay: MIC, standard serial dilution method; details: Muller-Hinton agar medium, 37° C.
[3] = tested on: Pseudomonas aeruginosa A3; assay: MIC, standard serial dilution method; details: Muller-Hinton agar medium, 37° C.
Shigella sonnei JS 11746 = assay: MIC, standard serial dilution method; details: Muller-Hinton agar medium, 37° C.
Experimental: (§1) The antibacterial activities of the amythiamicin amide derivative of the general formula (I) according to this invention are now concretely described. Compounds No. 1 to No. 11 according to this invention, which were respectively prepared in Examples 1 to 11 hereinafter given, were tested as the test compounds for their minimum inhibitory concentrations (MIC.) (μg/ml) against growth of a variety of test microorganisms by a standard serial dilution method. In the tests, the incubation medium used was Muller-Hinton agar medium and the incubation temperature was 37° C. The test results are shown as antibacterial spectra in the following Tables 2 and 3.

[4] = tested on: Escherichia coli K-12 ML 1692; assay: MIC, standard serial dilution method; details: Muller-Hinton agar medium, 37° C.
Experimental: as §1

[5] = tested on: Shigella clexnerl JS 11749; assay: MIC, standard serial dilution method; details: Muller-Hinton agar medium, 37° C.
Experimental: as §1

[6] = tested on: Micrococcus luteus IFO 3333; assay: MIC, standard serial dilution method; details: Muller-Hinton agar medium, 37° C.
Escherichia coli K-12 = assay: MIC, standard serial dilution method; details: Muller-Hinton agar medium, 37° C.
[7] = tested on: Bacillus cereus ATCC 10702; assay: MIC, standard serial dilution method; details: Muller-Hinton agar medium, 37° C.
[8] = tested on: Bacillus subtilis PCI 219; assay: MIC, standard serial dilution method; details: Muller-Hinton agar medium, 37° C.
Escherichia coli NIHJ = assay: MIC, standard serial dilution method; details: Muller-Hinton agar medium, 37° C.
[9] = tested on: Corynebacterium bovis 1810; assay: MIC, standard serial dilution method; details: Muller-Hinton agar medium, 37° C.
[10] = tested on: Providencia rettgeri GN 466; assay: MIC, standard serial dilution method; details: Muller-Hinton agar medium, 37° C.
[11] = tested on: Escherichia coli BEM 1121; assay: MIC, standard serial dilution method; details: Muller-Hinton agar medium, 37° C.
[12] = tested on: Pseudomonas aeruginosa GN315; assay: MIC, standard serial dilution method; details: Muller-Hinton agar medium, 37° C.
[13] = tested on: Staphylococcus aureus TY-0428; assay: MIC, standard serial dilution method; details: Muller-Hinton agar medium, 37° C.
[14] = tested on: Salmonella enteritidis 1891; assay: MIC, standard serial dilution method; details: Muller-Hinton agar medium, 37° C.
Serratia marcescens = assay: MIC, standard serial dilution method; details: Muller-Hinton agar medium, 37° C.
Proteus vulgaris OX 19 = assay: MIC, standard serial dilution method; details: Muller-Hinton agar medium, 37° C.
[15] = tested on: Klebsiella pneumonia PCI 602; assay: MIC, standard serial dilution method; details: Klebsiella pneumonia PCI 602 (Table 2); Muller-Hinton agar medium, 37° C.
[16] = tested on: Staphylococcus aureus No. 5 (MRSA); assay: MIC, standard serial dilution method; details: Muller-Hinton agar medium, 37° C.
[17] = tested on: Bacillus subtilis NRRL B-558; assay: MIC, standard serial dilution method; details: Muller-Hinton agar medium, 37° C.
[18] = tested on: Staphylococcus aureus No. 17 (MRSA); assay: MIC, standard serial dilution method; details: Muller-Hinton agar medium, 37° C.
[19] = tested on: Micrococcus luteus FDA 16; assay: MIC, standard serial dilution method; details: Muller-Hinton agar medium, 37° C.
[20] = tested on: Proteus mirabilis IFM OM-9; assay: MIC, standard serial dilution method; details: Muller-Hinton agar medium, 37° C.
[21] = tested on: Providencia rettgeri GN 311; assay: MIC, standard serial dilution method; details: Muller-Hinton agar medium, 37° C.
[22] = tested on: Shigella dysenteria JS 11910; assay: MIC, standard serial dilution method; details: Muller-Hinton agar medium, 37° C.
[23] = tested on: Staphylococcus aureus MS 16526; assay: MIC, standard serial dilution method; details: Muller-Hinton agar medium, 37° C.
[24] = tested on: Staphylococcus aureus Smith; assay: MIC, standard serial dilution method; details: Muller-Hinton agar medium, 37° C.
Salmonella typhi T-63 = assay: MIC, standard serial dilution method; details: Muller-Hinton agar medium, 37° C.
[25] = tested on: Micrococcus luteus PIC 1001; assay: MIC, standard serial dilution method; details: Muller-Hinton agar medium, 37° C.
Escherichia coli BEM 11 = assay: MIC, standard serial dilution method; details: Muller-Hinton agar medium, 37° C.
[26] = tested on: Mycobacterium smegmatis ATCC 607; assay: MIC, standard serial dilution method; details: Muller-Hinton agar medium, 37° C.

**Q.** Which results are given for `CNC(=O)CC1NC(=O)c2csc(n2)-c2ccc(-c3nc(C(=O)NCCCCCC(=O)O)cs3)nc2-c2csc(n2)-c2csc(n2)C(C(C)C)NC(=O)CNC(=O)c2csc(n2)C(C(C)C)NC(=O)c2nc1sc2C` (centres unmarked) [Compound No. 2]?
**A.** Minimum growth inhibitory concentrations (MIC.) (Escherichia coli BE 1186): > 100 µg/mL; Minimum growth inhibitory concentrations (MIC.) [1]: 0.1 µg/mL; Minimum growth inhibitory concentrations (MIC.) [2]: 0.2 µg/mL; Minimum growth inhibitory concentrations (MIC.) (Bacillus anthracis): < 0.03 µg/mL; Minimum growth inhibitory concentrations (MIC.) (Candida albicans 3147): > 100 µg/mL; Minimum growth inhibitory concentrations (MIC.) [3]: > 50 µg/mL; Minimum growth inhibitory concentrations (MIC.) (Shigella sonnei JS 11746): > 100 µg/mL; Minimum growth inhibitory concentrations (MIC.) [4]: > 100 µg/mL; Minimum growth inhibitory concentrations (MIC.) [5]: > 100 µg/mL; Minimum growth inhibitory concentrations (MIC.) [6]: 0.39 µg/mL; Minimum growth inhibitory concentrations (MIC.) (Escherichia coli K-12): > 100 µg/mL; Minimum growth inhibitory concentrations (MIC.) [7]: 0.1 µg/mL; Minimum growth inhibitory concentrations (MIC.) [8]: 0.2 µg/mL; Minimum growth inhibitory concentrations (MIC.) (Escherichia coli NIHJ): > 100 µg/mL; Minimum growth inhibitory concentrations (MIC.) [9]: 0.31 µg/mL; Minimum growth inhibitory concentrations (MIC.) [10]: > 100 µg/mL; Minimum growth inhibitory concentrations (MIC.) [11]: > 100 µg/mL; Minimum growth inhibitory concentrations (MIC.) [12]: > 100 µg/mL; Minimum growth inhibitory concentrations (MIC.) [13]: 0.2 µg/mL; Minimum growth inhibitory concentrations (MIC.) [14]: 6.25 µg/mL; Minimum growth inhibitory concentrations (MIC.) (Serratia marcescens): > 100 µg/mL; Minimum growth inhibitory concentrations (MIC.) (Proteus vulgaris OX 19): > 100 µg/mL; Minimum growth inhibitory concentrations (MIC.) [15]: > 100 µg/mL; Minimum growth inhibitory concentrations (MIC.) [16]: 0.2 µg/mL; Minimum growth inhibitory concentrations (MIC.) [17]: 1.56 µg/mL; Minimum growth inhibitory concentrations (MIC.) [18]: 0.2 µg/mL; Minimum growth inhibitory concentrations (MIC.) [19]: 0.39 µg/mL; Minimum growth inhibitory concentrations (MIC.) [20]: > 100 µg/mL; Minimum growth inhibitory concentrations (MIC.) [21]: > 100 µg/mL; Minimum growth inhibitory concentrations (MIC.) [22]: 3.13 µg/mL; Minimum growth inhibitory concentrations (MIC.) [23]: 0.2 µg/mL; Minimum growth inhibitory concentrations (MIC.) [24]: 0.1 µg/mL; Minimum growth inhibitory concentrations (MIC.) (Salmonella typhi T-63): > 100 µg/mL; Minimum growth inhibitory concentrations (MIC.) [25]: 0.1 µg/mL; Minimum growth inhibitory concentrations (MIC.) (Escherichia coli BEM 11): > 100 µg/mL

**Q.** With `CNC(=O)CC1NC(=O)c2csc(n2)-c2ccc(-c3nc(C(=O)NCCCN(C)CCCN)cs3)nc2-c2csc(n2)-c2csc(n2)C(C(C)C)NC(=O)CNC(=O)c2csc(n2)C(C(C)C)NC(=O)c2nc1sc2C` (centres unmarked) [Compound No. 4] as the molecule, how does the “Minimum growth inhibitory concentrations (MIC.)” value (Escherichia coli BE 1186) read?
**A.** Its value is over 100 µg/mL.

**Q.** And the “Minimum growth inhibitory concentrations (MIC.)” value [1]?
**A.** The value was 12.5 µg/mL.

**Q.** What about the “Minimum growth inhibitory concentrations (MIC.)” value [2] of the same molecule?
**A.** Its value is 50 µg/mL.

**Q.** And the “Minimum growth inhibitory concentrations (MIC.)” value (Bacillus anthracis)?
**A.** The value was 3.12 µg/mL.

**Q.** What about the “Minimum growth inhibitory concentrations (MIC.)” value (Candida albicans 3147) of the same molecule?
**A.** Its value is over 100 µg/mL.

**Q.** And the “Minimum growth inhibitory concentrations (MIC.)” value [3]?
**A.** Its value is over 100 µg/mL.

**Q.** What about the “Minimum growth inhibitory concentrations (MIC.)” value (Shigella sonnei JS 11746) of the same molecule?
**A.** The value was over 100 µg/mL.

**Q.** What about the “Minimum growth inhibitory concentrations (MIC.)” value [4] of the same molecule?
**A.** Its value is over 100 µg/mL.

**Q.** And the “Minimum growth inhibitory concentrations (MIC.)” value [5]?
**A.** Its value is over 100 µg/mL.

**Q.** What about the “Minimum growth inhibitory concentrations (MIC.)” value [6] of the same molecule?
**A.** Its value is over 100 µg/mL.

**Q.** What about the “Minimum growth inhibitory concentrations (MIC.)” value (Escherichia coli K-12) of the same molecule?
**A.** Its value is over 100 µg/mL.

**Q.** And the “Minimum growth inhibitory concentrations (MIC.)” value [7]?
**A.** The value was 6.25 µg/mL.

**Q.** What about the “Minimum growth inhibitory concentrations (MIC.)” value [8] of the same molecule?
**A.** The value was over 100 µg/mL.

**Q.** What about the “Minimum growth inhibitory concentrations (MIC.)” value (Escherichia coli NIHJ) of the same molecule?
**A.** Its value is over 100 µg/mL.

**Q.** What about the “Minimum growth inhibitory concentrations (MIC.)” value [9] of the same molecule?
**A.** Its value is over 100 µg/mL.

**Q.** And the “Minimum growth inhibitory concentrations (MIC.)” value [10]?
**A.** Its value is over 100 µg/mL.

**Q.** And the “Minimum growth inhibitory concentrations (MIC.)” value [11]?
**A.** Its value is over 100 µg/mL.

**Q.** What about the “Minimum growth inhibitory concentrations (MIC.)” value [12] of the same molecule?
**A.** The value was over 100 µg/mL.

**Q.** What about the “Minimum growth inhibitory concentrations (MIC.)” value [13] of the same molecule?
**A.** The value was over 100 µg/mL.

**Q.** And the “Minimum growth inhibitory concentrations (MIC.)” value [14]?
**A.** The value was over 100 µg/mL.

**Q.** And the “Minimum growth inhibitory concentrations (MIC.)” value (Serratia marcescens)?
**A.** Its value is over 100 µg/mL.

**Q.** What about the “Minimum growth inhibitory concentrations (MIC.)” value (Proteus vulgaris OX 19) of the same molecule?
**A.** The value was over 100 µg/mL.

**Q.** And the “Minimum growth inhibitory concentrations (MIC.)” value [15]?
**A.** Its value is over 100 µg/mL.

**Q.** And the “Minimum growth inhibitory concentrations (MIC.)” value [16]?
**A.** The value was over 100 µg/mL.

**Q.** What about the “Minimum growth inhibitory concentrations (MIC.)” value [17] of the same molecule?
**A.** The value was over 100 µg/mL.

**Q.** What about the “Minimum growth inhibitory concentrations (MIC.)” value [18] of the same molecule?
**A.** Its value is over 100 µg/mL.

**Q.** And the “Minimum growth inhibitory concentrations (MIC.)” value [19]?
**A.** The value was over 100 µg/mL.

**Q.** What about the “Minimum growth inhibitory concentrations (MIC.)” value [20] of the same molecule?
**A.** Its value is over 100 µg/mL.

**Q.** What about the “Minimum growth inhibitory concentrations (MIC.)” value [21] of the same molecule?
**A.** The value was over 100 µg/mL.

**Q.** What about the “Minimum growth inhibitory concentrations (MIC.)” value [22] of the same molecule?
**A.** Its value is over 100 µg/mL.

**Q.** What about the “Minimum growth inhibitory concentrations (MIC.)” value [23] of the same molecule?
**A.** Its value is over 100 µg/mL.

**Q.** And the “Minimum growth inhibitory concentrations (MIC.)” value [26]?
**A.** Its value is over 100 µg/mL.

**Q.** And the “Minimum growth inhibitory concentrations (MIC.)” value [24]?
**A.** The value was 12.5 µg/mL.

**Q.** And the “Minimum growth inhibitory concentrations (MIC.)” value (Salmonella typhi T-63)?
**A.** The value was over 100 µg/mL.

**Q.** What about the “Minimum growth inhibitory concentrations (MIC.)” value [25] of the same molecule?
**A.** Its value is 3.12 µg/mL.

**Q.** What about the “Minimum growth inhibitory concentrations (MIC.)” value (Escherichia coli BEM 11) of the same molecule?
**A.** Its value is over 100 µg/mL.
